Experimental data taken from ChEMBL document CHEMBL5212743, “Selectivity Literature for EUbOPEN Chemogenomics Library wave 3” (2023).
pIC50, pKd: −log10 of the molar value.

Tests used:
[1] = molecular target: Mitogen-activated protein kinase 8 (Homo sapiens, UniProt P45983); assay: Selectivity interaction (KinomeScan (DiscoverX, competition-binding assay)) EUB0000353a MAPK8
[2] = molecular target: Mitogen-activated protein kinase 10 (Homo sapiens, UniProt P53779); assay: Selectivity interaction (KinomeScan (DiscoverX, competition-binding assay)) EUB0000353a MAPK10
Mitogen-activated protein kinase 10, sequence (P53779 whole entry): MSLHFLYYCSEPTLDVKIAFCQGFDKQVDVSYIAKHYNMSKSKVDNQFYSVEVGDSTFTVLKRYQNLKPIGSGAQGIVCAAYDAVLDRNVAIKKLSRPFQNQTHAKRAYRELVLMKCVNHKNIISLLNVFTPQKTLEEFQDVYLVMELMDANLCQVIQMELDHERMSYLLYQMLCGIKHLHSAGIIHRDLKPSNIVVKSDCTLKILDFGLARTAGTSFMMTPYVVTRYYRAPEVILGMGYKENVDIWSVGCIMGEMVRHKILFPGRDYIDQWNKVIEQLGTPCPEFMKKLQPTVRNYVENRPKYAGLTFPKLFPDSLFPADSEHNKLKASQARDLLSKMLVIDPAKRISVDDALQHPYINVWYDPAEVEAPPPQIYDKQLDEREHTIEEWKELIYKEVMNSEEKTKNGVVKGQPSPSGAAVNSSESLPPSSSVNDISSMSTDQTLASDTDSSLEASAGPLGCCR

[3] = molecular target: Tyrosine-protein kinase BTK (Homo sapiens, UniProt Q06187); assay: Selectivity interaction (KinomeScan (DiscoverX, competition-binding assay)) EUB0000353a BTK
Tyrosine-protein kinase BTK, sequence (Q06187 whole entry): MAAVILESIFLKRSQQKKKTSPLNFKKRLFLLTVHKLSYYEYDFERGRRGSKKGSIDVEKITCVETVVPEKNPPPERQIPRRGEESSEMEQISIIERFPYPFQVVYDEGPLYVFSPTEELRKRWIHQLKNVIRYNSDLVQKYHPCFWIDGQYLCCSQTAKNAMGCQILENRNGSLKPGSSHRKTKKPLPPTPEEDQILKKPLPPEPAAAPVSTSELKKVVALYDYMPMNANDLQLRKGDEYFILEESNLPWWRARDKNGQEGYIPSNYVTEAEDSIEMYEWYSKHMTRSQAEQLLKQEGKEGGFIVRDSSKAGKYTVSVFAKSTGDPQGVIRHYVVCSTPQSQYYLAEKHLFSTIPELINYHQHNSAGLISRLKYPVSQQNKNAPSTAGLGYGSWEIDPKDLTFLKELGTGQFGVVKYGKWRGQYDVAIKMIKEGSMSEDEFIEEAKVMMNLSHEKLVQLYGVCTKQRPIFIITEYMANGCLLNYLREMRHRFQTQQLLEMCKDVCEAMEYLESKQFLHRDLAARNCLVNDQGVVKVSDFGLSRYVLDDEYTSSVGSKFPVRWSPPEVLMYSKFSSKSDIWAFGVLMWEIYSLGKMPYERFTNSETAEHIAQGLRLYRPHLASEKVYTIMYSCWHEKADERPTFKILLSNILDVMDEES

[4] = molecular target: T1, Alpha-1A adrenergic receptor (Homo sapiens, UniProt P35348); assay: Selectivity interaction (Binding assay) EUB0000341aCl ADRA1A
T1 sequence (P35348 whole entry): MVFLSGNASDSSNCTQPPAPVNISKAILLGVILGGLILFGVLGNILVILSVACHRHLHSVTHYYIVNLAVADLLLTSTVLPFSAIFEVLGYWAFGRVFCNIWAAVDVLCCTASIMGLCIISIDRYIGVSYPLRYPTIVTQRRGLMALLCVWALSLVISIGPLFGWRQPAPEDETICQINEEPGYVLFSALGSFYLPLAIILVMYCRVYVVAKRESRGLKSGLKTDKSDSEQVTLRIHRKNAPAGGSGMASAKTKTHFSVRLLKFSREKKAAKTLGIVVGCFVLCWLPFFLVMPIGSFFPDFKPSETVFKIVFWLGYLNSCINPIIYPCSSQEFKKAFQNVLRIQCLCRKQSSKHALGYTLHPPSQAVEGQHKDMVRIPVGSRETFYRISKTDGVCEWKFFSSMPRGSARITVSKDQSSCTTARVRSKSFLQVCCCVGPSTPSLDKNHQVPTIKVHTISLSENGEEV

[5] = molecular target: T2, Alpha-1B adrenergic receptor (Homo sapiens, UniProt P35368); assay: Selectivity interaction (Binding assay) EUB0000341aCl ADRA1B
T2 sequence (P35368 whole entry): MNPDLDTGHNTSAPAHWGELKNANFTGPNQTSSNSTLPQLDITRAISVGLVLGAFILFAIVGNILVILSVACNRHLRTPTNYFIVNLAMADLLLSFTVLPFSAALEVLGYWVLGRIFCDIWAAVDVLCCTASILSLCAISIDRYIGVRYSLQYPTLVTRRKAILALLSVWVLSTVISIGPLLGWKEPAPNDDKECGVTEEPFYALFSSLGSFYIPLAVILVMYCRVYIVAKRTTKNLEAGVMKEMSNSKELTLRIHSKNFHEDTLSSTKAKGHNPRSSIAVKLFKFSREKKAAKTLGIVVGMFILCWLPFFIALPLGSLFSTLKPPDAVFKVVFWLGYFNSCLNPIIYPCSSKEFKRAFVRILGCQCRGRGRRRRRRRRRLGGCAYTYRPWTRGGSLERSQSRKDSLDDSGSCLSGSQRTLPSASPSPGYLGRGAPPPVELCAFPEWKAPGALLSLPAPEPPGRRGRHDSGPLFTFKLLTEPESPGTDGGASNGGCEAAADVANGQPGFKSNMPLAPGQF

[6] = molecular target: Dual specificity tyrosine-phosphorylation-regulated kinase 1B (Homo sapiens, UniProt Q9Y463); assay: Selectivity interaction (KinomeScan (DiscoverX)) EUB0000341aCl DYRK1B; conditions: at 1 µM
Dual specificity tyrosine-phosphorylation-regulated kinase 1B, sequence (Q9Y463 whole entry, looked up): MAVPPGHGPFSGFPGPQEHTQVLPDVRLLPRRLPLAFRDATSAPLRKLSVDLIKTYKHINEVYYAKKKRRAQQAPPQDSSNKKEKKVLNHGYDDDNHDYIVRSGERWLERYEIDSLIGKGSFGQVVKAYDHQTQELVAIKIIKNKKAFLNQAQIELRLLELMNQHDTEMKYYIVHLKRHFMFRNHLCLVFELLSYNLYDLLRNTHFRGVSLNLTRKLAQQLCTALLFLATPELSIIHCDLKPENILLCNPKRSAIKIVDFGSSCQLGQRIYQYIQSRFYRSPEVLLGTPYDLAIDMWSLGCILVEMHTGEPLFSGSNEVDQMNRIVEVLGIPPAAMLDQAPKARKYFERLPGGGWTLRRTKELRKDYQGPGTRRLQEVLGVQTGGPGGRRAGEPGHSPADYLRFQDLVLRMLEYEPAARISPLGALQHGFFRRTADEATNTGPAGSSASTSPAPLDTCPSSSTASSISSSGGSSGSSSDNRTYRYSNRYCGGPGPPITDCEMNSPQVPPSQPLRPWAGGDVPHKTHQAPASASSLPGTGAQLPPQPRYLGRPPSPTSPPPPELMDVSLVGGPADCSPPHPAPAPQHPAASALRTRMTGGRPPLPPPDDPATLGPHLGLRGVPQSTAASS

[7] = test system: Tyrosine-protein kinase ABL1 (Homo sapiens), P00519 [F317L]; assay: (§1) Selectivity interaction (KinomeScan (DiscoverX)) EUB0000341aCl ABL1; conditions: at 1 µM
[8] = test system: Tyrosine-protein kinase ABL1 (Homo sapiens), P00519 [M351T]; assay: as §1; conditions: at 1 µM
[9] = test system: Tyrosine-protein kinase ABL1 (Homo sapiens), P00519 [T315I]; assay: as §1; conditions: at 1 µM
[10] = molecular target: NT-3 growth factor receptor (Homo sapiens, UniProt Q16288); assay: Selectivity interaction (KinomeScan (DiscoverX)) EUB0000341aCl NTRK3; conditions: at 1 µM
NT-3 growth factor receptor, sequence (Q16288 32-839 limits assumed): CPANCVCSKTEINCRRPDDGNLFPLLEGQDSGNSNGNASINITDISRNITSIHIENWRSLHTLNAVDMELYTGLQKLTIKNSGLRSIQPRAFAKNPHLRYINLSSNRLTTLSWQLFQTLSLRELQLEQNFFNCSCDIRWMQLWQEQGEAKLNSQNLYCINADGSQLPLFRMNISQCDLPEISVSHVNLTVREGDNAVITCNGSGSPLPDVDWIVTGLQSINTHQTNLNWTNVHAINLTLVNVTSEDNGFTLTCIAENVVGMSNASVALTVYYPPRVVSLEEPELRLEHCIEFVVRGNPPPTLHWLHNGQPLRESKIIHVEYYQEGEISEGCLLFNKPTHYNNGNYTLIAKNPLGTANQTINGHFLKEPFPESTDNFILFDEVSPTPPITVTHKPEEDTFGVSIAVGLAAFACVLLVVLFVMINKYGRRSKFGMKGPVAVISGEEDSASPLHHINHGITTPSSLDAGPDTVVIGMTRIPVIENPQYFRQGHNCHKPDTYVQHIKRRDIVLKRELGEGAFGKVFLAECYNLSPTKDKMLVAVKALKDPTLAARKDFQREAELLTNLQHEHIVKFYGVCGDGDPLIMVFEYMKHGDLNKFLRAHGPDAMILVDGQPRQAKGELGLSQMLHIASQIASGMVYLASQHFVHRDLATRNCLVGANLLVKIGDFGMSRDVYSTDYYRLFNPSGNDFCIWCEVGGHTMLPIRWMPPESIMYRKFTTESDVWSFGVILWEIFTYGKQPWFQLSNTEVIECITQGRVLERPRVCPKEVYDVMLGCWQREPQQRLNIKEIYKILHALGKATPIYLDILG

[11] = molecular target: T3, Alpha-1A adrenergic receptor (Homo sapiens) (UniProt P35348); conditions: at 10 µM
T3 sequence (whole entry): T1 sequence (P35348 whole entry)

[12] = molecular target: Alpha-1D adrenergic receptor (Homo sapiens) (UniProt P25100); conditions: at 10 µM
Alpha-1D adrenergic receptor (Homo sapiens), sequence (P25100 whole entry): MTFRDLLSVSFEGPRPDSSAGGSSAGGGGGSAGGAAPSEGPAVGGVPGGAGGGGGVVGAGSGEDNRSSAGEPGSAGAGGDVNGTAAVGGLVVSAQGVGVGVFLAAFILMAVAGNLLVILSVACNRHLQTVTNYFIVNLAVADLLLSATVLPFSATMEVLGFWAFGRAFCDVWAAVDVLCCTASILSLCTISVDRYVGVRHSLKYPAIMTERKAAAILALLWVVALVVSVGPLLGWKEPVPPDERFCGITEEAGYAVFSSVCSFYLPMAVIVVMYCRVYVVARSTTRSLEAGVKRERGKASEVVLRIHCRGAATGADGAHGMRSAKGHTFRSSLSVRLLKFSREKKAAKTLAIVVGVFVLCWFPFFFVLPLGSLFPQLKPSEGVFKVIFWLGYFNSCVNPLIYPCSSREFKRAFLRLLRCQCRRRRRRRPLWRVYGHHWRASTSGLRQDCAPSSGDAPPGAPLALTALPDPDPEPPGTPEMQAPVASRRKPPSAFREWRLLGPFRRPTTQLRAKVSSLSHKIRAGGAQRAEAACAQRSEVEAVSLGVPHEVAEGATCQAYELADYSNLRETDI

Mitogen-activated protein kinase 8, sequence (P45983 whole entry): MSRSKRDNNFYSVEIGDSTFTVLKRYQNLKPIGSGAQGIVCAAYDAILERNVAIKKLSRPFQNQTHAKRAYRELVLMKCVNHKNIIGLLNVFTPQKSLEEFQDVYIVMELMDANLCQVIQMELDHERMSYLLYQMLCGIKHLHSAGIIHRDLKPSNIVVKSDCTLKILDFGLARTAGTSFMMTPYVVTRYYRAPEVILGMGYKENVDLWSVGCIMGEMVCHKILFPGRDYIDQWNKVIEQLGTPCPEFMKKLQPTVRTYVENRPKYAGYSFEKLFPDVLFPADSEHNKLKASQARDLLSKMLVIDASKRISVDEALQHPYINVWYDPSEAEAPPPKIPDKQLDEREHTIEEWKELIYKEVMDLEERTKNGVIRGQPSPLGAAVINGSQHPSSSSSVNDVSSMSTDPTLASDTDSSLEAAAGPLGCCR

SMILES	pKd [1]	pKd [2]	pKd [3]	pIC50 [4]	pIC50 [5]	% of control [6] [%]	% of control [7] [%]	% of control [8] [%]	% of control [9] [%]	% of control [10] [%]	% of inhibition [11] [%]	% of inhibition [12] [%]
CN(C)[C@@H]1CCN(c2cc(-c3ccccc3)nc3ccnn23)C1 [(R)-ZINC-3573]	4.72	< 4.52	4.57									
C[C@@H](c1cccc(C#N)c1)n1cc(Cl)cc(C(N)=O)c1=N				5.57	5.92	37	0	0	0	0	55	61
